According to patent publication US11655235B2, “Pyrrolidine and piperidine compounds” (YUHAN CORPORATION, priority 2019, dated 2023):
Read-outs that look alike come from different tables or passages of the source.

Assays:
Assay type in all cases: biochemical
[1] = biological target: T1, Recombinant human FAP (Homo sapiens, UniProt Q12884); assay: FAP inhibition, fluorogenic substrate Z-Gly-Pro-AMC
T1 construct: purchased R&D systems
T1 sequence (Q12884 1-760): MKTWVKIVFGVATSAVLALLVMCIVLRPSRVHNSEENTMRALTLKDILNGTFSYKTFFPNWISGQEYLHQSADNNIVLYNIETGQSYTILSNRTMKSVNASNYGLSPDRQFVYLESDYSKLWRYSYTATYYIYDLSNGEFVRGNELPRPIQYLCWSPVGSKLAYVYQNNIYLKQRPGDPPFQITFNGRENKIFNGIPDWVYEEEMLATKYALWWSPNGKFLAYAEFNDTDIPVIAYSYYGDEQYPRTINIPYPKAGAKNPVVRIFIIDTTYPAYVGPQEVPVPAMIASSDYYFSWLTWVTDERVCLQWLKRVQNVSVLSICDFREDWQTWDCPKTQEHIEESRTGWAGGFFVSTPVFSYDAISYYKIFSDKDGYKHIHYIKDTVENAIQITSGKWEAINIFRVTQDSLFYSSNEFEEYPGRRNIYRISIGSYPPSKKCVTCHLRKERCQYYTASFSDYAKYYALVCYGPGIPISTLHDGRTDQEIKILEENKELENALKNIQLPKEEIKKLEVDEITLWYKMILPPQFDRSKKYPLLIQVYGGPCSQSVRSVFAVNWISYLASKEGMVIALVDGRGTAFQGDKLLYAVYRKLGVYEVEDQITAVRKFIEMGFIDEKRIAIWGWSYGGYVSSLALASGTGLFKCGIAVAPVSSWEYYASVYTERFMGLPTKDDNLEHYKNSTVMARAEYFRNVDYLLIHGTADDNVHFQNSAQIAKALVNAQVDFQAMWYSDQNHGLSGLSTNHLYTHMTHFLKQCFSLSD
In short: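 Eight-point compound dilutions (≤0.1% DMSO) were incubated at 25° C with 10 ng recombinant human FAP in Tris pH 7.5/1 M NaCl/BSA buffer and Z-Gly-Pro-AMC. Inhibition was taken as % drop in fluorescence rate (380/460 nm) against uninhibited control; IC50 came from a four-parameter logistic fit.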

[2] = biological target: T2, recombinant human DPP7 (Homo sapiens, UniProt Q9UHL4); assay: DPP7 inhibition, fluorogenic substrate Lys-Pro-AMC
T2 construct: purchased R&D Systems
In short: (§1)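 Inhibitors are titrated in an 8-point series into the enzyme's assay buffer (DMSO no more than 0.5%). Substrate cleavage at 25 °C is followed by fluorescence, excitation 380 nm and emission 460 nm. IC50 values come from a four-variable logistic model.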

[3] = biological target: T3, recombinant human DPP8 (Homo sapiens, UniProt Q6V1X1); assay: DPP8 inhibition, fluorogenic substrate Z-Ala-Pro-AMC
T3 construct: purchased PBS Bioscience
Experimental: The compounds according to the present technology were evaluated in terms of the inhibitory effect on the activity of dipeptidyl peptidases including FAP by using a substrate producing fluorescent substances upon enzymatic decomposition. The test was conducted at 25° C. to get a final reaction volume of 100 μL in a 96 black well plate. […] Briefly, the test compounds were dissolved in dimethyl sulfoxide (DMSO) at a concentration of 20 mM and then subjected to serial dilution, thereby creating an 8 point curve. As for the control group, a 6 point curve created by serial dilution of Talabostat in the same buffer solution was used. Fluorescence intensity was measured using a microplate reader (Flexstation3, Molecular Devices) under the wavelength condition exciting at 380 nm and reading the emission at 460 nm. The inhibitory effect of the test compounds was measured as a decrease (%) in the signal rate as compared to the control group without any inhibitor. Data was fixed to a logistic model with four variables and IC50 value was calculated using GraphPad Prism program. As for recombinant human DPP4 (R&D Systems), 25 mM tris (pH 8.0) buffer as a buffer solution and H-Gly-Pro-AMC (Bachem) as a substrate were used. As for recombinant human DPP7 (R&D Systems), 25 mM MES (pH 6.0) buffer as a buffer solution and Lys-Pro-AMC (Bachem) as a substrate were used. As for recombinant human DPP8 (PBS Bioscience), as a buffer solution, a 10 mM tris (pH 7.4) buffer comprising 10 mM of magnesium chloride and 0.05% of Tween 20, and Z-Ala-Pro-AMC (BPS Bioscience) as a substrate were used. As for recombinant human DPP9 (R&D Systems), a 25 mM tris (pH 8.0) buffer as a buffer solution and H-Gly-Pro-AMC (Bachem) as a substrate were used. As for recombinant human PREP (R&D System), as a buffer solution, a 25 mM tris (pH 7.5) buffer comprising 250 mM sodium chloride and 2.5 mM DTT (Dithiolthreitol), and Z-Gly-Pro-AMC (Bachem) as a substrate were used. The evaluation was made by using 10 ng of DPP4, PDD7, and PREP, 20 ng of DPP8, and 50 ng of DPP9 based on the final reaction. In the evaluation of DPP4, the test compounds were subjected to serial dilution in a buffer under the condition containing up to 0.1% of DMSO. In the evaluation of DPP7, DPP8, DPP9, and PREP, the test compounds were subjected to serial dilution in each buffer under the condition containing up to 0.5% of DMSO.

[4] = biological target: T4, recombinant human DPP9 (Homo sapiens, UniProt Q86TI2); assay: DPP9 inhibition, fluorogenic substrate H-Gly-Pro-AMC
T4 construct: purchased R&D Systems
In short: as §1

[5] = biological target: T5, recombinant human PREP (Homo sapiens, UniProt P48147); assay: PREP inhibition, fluorogenic substrate Z-Gly-Pro-AMC; conditions: Inhibitory Activity (IC50, nM) PREP
T5 construct: purchased R&D System
T5 sequence (P48147 1-710): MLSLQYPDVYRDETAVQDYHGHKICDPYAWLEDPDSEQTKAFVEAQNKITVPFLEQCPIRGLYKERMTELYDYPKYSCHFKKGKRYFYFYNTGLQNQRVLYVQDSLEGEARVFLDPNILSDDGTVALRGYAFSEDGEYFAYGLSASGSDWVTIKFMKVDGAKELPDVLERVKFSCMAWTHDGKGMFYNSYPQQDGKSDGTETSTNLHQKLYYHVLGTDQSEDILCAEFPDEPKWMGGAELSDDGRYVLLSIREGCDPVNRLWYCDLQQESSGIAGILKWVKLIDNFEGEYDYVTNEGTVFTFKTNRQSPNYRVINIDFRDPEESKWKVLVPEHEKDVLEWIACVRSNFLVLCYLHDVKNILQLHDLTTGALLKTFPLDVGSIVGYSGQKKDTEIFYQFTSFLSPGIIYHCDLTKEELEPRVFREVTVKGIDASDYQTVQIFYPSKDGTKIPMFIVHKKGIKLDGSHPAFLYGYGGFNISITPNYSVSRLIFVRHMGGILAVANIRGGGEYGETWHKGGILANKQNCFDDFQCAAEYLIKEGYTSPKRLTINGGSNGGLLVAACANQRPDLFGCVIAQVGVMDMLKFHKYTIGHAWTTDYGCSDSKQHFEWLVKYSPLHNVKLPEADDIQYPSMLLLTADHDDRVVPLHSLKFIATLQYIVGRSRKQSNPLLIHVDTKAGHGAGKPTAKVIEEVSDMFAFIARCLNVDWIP
In short: as §1

[6] = biological target: DPP4 (Homo sapiens, UniProt P27487); assay: DPP4 inhibition, fluorogenic substrate H-Gly-Pro-AMC; set-up: purchased R&D Systems; conditions: 25° C., H-Gly-Pro-AMC substrate
[7] = 25° C., Z-Gly-Pro-AMC substrate
[8] = 25° C., Z-Ala-Pro-AMC substrate
[9] = 25° C., H-Gly-Pro-AMC substrate
[10] = recombinant human FAP, substrate Z-Gly-Pro-AMC

Sequence of DPP4 (P27487 whole entry): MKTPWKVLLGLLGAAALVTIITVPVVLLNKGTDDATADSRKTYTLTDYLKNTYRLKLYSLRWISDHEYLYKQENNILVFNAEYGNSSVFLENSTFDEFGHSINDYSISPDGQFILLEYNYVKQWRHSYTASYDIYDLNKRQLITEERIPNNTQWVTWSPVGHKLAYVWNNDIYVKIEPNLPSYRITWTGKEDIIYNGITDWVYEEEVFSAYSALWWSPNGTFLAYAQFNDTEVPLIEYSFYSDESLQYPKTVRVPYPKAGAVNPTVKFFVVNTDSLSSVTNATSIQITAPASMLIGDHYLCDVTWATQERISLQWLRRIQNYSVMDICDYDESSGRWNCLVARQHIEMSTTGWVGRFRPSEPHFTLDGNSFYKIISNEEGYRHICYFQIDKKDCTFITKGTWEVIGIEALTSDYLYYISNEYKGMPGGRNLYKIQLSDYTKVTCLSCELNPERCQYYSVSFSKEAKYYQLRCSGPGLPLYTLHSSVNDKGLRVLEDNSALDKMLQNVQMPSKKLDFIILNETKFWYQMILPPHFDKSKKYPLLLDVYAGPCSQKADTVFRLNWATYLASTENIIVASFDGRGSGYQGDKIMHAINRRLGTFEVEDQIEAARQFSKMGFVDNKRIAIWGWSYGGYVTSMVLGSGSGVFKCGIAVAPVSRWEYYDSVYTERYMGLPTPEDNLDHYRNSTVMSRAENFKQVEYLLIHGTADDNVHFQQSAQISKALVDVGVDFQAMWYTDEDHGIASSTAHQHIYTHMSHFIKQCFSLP
T4 sequence (Q86TI2 whole entry): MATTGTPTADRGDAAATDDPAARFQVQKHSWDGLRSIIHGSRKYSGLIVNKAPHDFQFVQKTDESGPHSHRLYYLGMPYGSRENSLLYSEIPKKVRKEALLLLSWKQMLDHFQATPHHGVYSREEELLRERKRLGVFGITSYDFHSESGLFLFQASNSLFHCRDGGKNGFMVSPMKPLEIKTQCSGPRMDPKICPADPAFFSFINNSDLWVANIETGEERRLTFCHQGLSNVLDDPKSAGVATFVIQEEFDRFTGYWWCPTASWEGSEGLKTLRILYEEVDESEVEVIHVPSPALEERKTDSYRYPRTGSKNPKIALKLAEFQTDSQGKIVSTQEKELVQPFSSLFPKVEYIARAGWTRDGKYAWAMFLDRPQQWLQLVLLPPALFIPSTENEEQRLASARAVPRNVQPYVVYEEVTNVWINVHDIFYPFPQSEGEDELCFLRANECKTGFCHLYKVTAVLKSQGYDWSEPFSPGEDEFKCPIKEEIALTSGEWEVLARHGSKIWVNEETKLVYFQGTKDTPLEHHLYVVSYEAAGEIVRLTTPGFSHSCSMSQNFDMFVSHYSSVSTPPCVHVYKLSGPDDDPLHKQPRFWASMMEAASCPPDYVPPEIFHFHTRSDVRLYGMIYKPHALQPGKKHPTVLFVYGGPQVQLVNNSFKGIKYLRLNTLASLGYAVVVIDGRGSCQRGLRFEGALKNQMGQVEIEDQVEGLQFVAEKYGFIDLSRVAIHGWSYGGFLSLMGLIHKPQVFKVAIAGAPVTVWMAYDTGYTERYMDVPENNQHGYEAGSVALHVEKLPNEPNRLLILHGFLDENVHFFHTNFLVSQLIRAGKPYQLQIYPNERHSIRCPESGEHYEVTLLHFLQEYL
T3 sequence (Q6V1X1 whole entry): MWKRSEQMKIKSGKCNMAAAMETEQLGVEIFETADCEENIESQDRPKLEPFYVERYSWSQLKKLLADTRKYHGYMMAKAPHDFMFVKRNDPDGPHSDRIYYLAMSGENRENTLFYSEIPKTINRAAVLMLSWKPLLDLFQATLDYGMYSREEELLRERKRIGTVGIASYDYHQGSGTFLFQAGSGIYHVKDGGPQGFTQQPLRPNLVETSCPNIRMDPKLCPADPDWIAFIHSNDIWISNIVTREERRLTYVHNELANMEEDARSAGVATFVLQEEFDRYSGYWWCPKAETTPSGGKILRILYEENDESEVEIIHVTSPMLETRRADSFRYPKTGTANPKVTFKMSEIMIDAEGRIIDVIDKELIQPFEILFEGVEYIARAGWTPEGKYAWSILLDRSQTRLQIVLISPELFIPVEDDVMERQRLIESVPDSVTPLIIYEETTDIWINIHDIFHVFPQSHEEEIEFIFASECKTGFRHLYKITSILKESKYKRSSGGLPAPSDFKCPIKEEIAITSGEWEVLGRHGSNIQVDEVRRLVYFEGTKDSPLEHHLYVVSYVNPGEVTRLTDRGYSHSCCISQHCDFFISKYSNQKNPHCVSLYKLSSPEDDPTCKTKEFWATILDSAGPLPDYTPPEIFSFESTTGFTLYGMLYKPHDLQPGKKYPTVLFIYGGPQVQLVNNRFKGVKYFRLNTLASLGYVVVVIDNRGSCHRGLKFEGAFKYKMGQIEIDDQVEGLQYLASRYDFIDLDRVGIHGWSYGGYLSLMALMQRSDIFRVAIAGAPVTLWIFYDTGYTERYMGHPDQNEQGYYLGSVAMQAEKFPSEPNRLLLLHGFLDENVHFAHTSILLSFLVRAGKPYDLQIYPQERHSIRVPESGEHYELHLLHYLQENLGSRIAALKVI

IC50 [1, 7] [µM] | IC50 [2] [µM] | IC50 [3, 8] [µM] | IC50 [4, 9] [µM] | IC50 [5, 7] [nM] | IC50 [6] [µM] | IC50 [1, 10] [µM] | IC50 ([2]; recombinant human DPP7) [µM] | IC50 ([3]; recombinant human DPP8) [µM] | IC50 ([4]; recombinant human DPP9) [µM] | IC50 ([5]; recombinant human PREP) [nM] | Structure (SMILES)
0.00183 | 0.0462 | 7.89 | 5.71 | > 100000 | > 1 | – | – | – | – | – | N#C[C@@H]1CC(F)(F)CN1C(=O)CN1CC[C@H](Nc2cnc3ccccc3c2)C1 [Example 6, (S)-4,4-difluoro-1-(2-((S)-3-(quinolin-3-ylamino)pyrrolidin-1-yl)acetyl)pyrrolidine-2-carbonitrile]
0.00046 | < 0.03 | 97.6 | 12.8 | > 100000 | > 1 | – | – | – | – | – | N#C[C@@H]1CC(F)(F)CN1C(=O)CN1CC[C@H](Nc2ccnc3ccccc23)C1 [Example 7, (S)-4,4-difluoro-1-(2-((S)-3-(quinolin-4-ylamino)pyrrolidin-1-yl)acetyl)pyrrolidine-2-carbonitrile]
0.0011 | < 0.03 | 5.79 | 0.488 | > 100000 | > 1 | – | – | – | – | – | N#C[C@@H]1CC(F)(F)CN1C(=O)CN1CC[C@H](Nc2cncc3ccccc23)C1 [Example 8, (S)-4,4-difluoro-1-(2-((S)-3-(isoquinolin-4-ylamino)pyrrolidin-1-yl)acetyl)pyrrolidine-2-carbonitrile]
0.0011 | 0.0751 | 0.213 | 12.3 | > 100000 | > 1 | – | – | – | – | – | N#C[C@@H]1CC(F)(F)CN1C(=O)CN1CC[C@H](Nc2cccc3sccc23)C1 [Example 9, (S)-1-(2-((S)-3-(benzo[b]thiophen-4-ylamino)pyrrolidin-1-yl)acetyl)-4,4-difluoropyrrolidine-2-carbonitrile]
0.0052 | 3.31 | 22 | 41.7 | 970 | – | – | – | – | – | – | COc1cccc2cc(N(C)[C@H]3CCN(CC(=O)N4CCC[C@H]4C#N)C3)cnc12 [Example 154, (S)-1-(2-((S)-3-((8-methoxyquinolin-3-yl)(methyl)amino)pyrrolidin-1-yl)acetyl)pyrrolidine-2-carbonitrile]
– | – | – | – | – | – | 0.0014 | 5.45 | 41.5 | 25.4 | 4250 | N#C[C@@H]1CCCN1C(=O)CN1CC[C@@H](Nc2cccc3ncccc23)C1 [Example 161, (S)-1-(2-((R)-3-(quinolin-5-ylamino)pyrrolidin-1-yl)acetyl)pyrrolidine-2-carbonitrile]
– | – | – | – | – | – | 0.0052 | 2.34 | ≥ 100 | 14.9 | 2610 | N#C[C@@H]1CCCN1C(=O)CN1CC[C@@H](Nc2ccc3ncccc3c2)C1 [Example 162, (2S)-1-[2-[(3R)-3-(6-quinolylamino)pyrrolidin-1-yl]acetyl]pyrrolidine-2-carbonitrile]
– | – | – | – | – | – | 0.0023 | 1.15 | ≥ 100 | 7.55 | 3970 | N#C[C@@H]1C[C@H](F)CN1C(=O)CN1CC[C@@H](Nc2cnc3ccccc3c2)C1 [Example 165, (2S,4S)-4-fluoro-1-[2-[(3R)-3-(3-quinolylamino)pyrrolidin-1-yl]acetyl]pyrrolidine-2-carbonitrile]
– | – | – | – | – | – | 0.0021 | 0.958 | 6.16 | 1.83 | 769 | N#C[C@@H]1C[C@H](F)CN1C(=O)CN1CC[C@@H](Nc2cccc3ncccc23)C1 [Example 166, (2S,4S)-4-fluoro-1-[2-[(3R)-3-(5-quinolylamino)pyrrolidin-1-yl]acetyl]pyrrolidine-2-carbonitrile]
– | – | – | – | – | – | 0.0014 | 2.04 | 6.28 | 2.56 | 5860 | N#C[C@@H]1C[C@H](F)CN1C(=O)CN1CC[C@@H](Nc2ccc3ncccc3c2)C1 [Example 167, (2S,4S)-4-fluoro-1-[2-[(3R)-3-(6-quinolylamino)pyrrolidin-1-yl]acetyl]pyrrolidine-2-carbonitrile]
– | – | – | – | – | – | 0.0035 | 0.302 | 14 | 2.7 | 7980 | N#C[C@@H]1C[C@H](F)CN1C(=O)CN1CC[C@@H](Nc2ccnc3ccccc23)C1 [Example 170, (2S,4S)-4-fluoro-1-[2-[(3R)-3-(4-quinolylamino)pyrrolidin-1-yl]acetyl]pyrrolidine-2-carbonitrile]
– | – | – | – | – | – | 0.0019 | 1.34 | ≥ 100 | 7.35 | 16400 | N#C[C@@H]1C[C@H](F)CN1C(=O)CN1CCC(Nc2cncc3ccncc23)CC1 [Example 360, (2S,4S)-4-fluoro-1-[2-[4-(2,6-naphthyridin-4-ylamino)-1-piperidyl]acetyl]pyrrolidine-2-carbonitrile]
– | – | – | – | – | – | 0.0027 | 0.314 | ≥ 100 | 4.58 | 409 | N#C[C@@H]1C[C@H](F)CN1C(=O)CN1CCC(Nc2cncc3c(Cl)cccc23)CC1 [Example 361, (2S,4S)-1-[2-[4-[(8-chloro-4-isoquinolyl)amino]-1-piperidyl]acetyl]-4-fluoro-pyrrolidine-2-carbonitrile]
